Source: patent US12209081B2 (Katholieke Universiteit Leuven, priority 2020, dated 2025)
Structures can show the parent of a compound that is named as a salt.

Tested on: TRPM3
Assay: not given
Conditions: wild type mice vs knock-out TRPM3 mice; cited from earlier work

SMILES | evoked pain
CC(=O)C1CCC2C3CC=C4CC(OS(=O)(=O)O)CCC4(C)C3CCC12C (stereo not drawn) [pregnenolone sulfate, Pregnenolone sulfate] | evoked pain in wild type mice but not in knock-out TRPM3 mice

Tested on: TRPM3
Assay: not given
Conditions: rat pain model; Chen L et al. 2014; cited from earlier work

SMILES | mechanical and cold hyperalgesia
O=C1C[C@@H](c2ccc(O)cc2)Oc2cc(O)ccc21 [Liquiritigenin] | decrease mechanical and cold hyperalgesia

Biological target: TRPM3 (Homo sapiens (Human), UniProt Q9HCF6)
Assay: not given
Conditions: Wagner et al., 2008; cited from earlier work

Sequence of TRPM3 (Homo sapiens (Human), UniProt Q9HCF6) (Q9HCF6 whole entry, species assumed): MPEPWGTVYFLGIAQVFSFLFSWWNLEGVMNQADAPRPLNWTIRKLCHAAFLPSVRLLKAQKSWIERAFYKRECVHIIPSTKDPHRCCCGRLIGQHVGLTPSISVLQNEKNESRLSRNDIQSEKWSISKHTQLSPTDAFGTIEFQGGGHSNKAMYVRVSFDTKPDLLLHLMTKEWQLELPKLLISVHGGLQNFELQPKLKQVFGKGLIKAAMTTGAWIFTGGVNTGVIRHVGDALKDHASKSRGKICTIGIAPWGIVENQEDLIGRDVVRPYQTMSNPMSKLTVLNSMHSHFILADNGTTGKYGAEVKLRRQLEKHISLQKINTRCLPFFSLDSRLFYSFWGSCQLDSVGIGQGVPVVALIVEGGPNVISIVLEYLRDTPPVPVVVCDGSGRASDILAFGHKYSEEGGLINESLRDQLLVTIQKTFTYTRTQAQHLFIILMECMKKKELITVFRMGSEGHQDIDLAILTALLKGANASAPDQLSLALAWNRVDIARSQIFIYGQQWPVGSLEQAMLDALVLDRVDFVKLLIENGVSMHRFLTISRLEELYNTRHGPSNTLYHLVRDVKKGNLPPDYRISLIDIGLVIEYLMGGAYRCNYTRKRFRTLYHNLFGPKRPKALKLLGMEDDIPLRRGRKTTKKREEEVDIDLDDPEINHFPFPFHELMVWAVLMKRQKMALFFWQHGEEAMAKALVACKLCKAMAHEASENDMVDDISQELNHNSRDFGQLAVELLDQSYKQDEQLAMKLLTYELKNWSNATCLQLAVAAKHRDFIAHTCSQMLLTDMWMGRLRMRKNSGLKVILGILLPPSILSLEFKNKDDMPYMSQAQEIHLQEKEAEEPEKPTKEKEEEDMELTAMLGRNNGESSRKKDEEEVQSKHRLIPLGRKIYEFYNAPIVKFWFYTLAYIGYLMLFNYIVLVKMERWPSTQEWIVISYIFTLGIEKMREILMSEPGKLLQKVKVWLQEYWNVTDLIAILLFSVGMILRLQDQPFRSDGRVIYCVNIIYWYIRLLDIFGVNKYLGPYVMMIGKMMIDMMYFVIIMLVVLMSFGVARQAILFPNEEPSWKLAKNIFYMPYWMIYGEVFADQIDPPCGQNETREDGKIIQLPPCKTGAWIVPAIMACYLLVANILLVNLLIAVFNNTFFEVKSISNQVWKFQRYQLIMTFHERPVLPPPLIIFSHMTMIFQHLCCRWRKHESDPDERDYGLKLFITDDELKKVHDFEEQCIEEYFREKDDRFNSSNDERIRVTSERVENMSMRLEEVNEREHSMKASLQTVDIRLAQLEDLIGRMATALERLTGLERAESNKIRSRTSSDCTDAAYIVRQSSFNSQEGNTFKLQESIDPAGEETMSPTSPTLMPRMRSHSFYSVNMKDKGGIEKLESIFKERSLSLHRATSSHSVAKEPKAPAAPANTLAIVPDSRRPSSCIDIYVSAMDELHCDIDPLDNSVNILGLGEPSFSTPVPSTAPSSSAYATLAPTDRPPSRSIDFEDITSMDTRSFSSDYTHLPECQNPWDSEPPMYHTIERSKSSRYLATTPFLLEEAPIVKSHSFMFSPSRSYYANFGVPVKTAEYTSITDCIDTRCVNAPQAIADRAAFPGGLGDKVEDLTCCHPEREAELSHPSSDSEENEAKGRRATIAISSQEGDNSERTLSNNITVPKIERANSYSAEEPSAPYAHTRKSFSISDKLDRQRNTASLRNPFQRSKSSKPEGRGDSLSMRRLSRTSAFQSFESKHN

SMILES | activator of TRPM3
CC(=O)C1CCC2C3CC=C4CC(OS(=O)(=O)O)CCC4(C)C3CCC12C (stereo not drawn) [pregnenolone sulfate, Pregnenolone sulfate] | potent known activator of TRPM3

Biological target: mouse TRPM3α2 (mTRPM3) ion channel (Mus musculus (Mouse), UniProt J9SQF3)
Assay: TRPM3 ion channel driven Ca2+ uptake, Fluo-4 AM assay, mTRPM3alpha2 overexpressing flip-in HEK293 cells stimulated with pregnenolone sulfate
Type: cell-based
Conditions: PS (50 μM) stimulated, cpds. 608-666
In short: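 Read-out is Ca2+ influx via Fluo-4 AM fluorescence at 485/535 nm, taken right after seeding ~2000 cells/well onto compound with 50 μM PS. Inhibition computed from RFU between vehicle-stimulated and positive-control-inhibitor wells; cells were mTRPM3α2-overexpressing flip-in HEK293.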

Sequence of mouse TRPM3α2 (mTRPM3) ion channel (J9SQF3 other isoform, or with tags, fused parts or gaps): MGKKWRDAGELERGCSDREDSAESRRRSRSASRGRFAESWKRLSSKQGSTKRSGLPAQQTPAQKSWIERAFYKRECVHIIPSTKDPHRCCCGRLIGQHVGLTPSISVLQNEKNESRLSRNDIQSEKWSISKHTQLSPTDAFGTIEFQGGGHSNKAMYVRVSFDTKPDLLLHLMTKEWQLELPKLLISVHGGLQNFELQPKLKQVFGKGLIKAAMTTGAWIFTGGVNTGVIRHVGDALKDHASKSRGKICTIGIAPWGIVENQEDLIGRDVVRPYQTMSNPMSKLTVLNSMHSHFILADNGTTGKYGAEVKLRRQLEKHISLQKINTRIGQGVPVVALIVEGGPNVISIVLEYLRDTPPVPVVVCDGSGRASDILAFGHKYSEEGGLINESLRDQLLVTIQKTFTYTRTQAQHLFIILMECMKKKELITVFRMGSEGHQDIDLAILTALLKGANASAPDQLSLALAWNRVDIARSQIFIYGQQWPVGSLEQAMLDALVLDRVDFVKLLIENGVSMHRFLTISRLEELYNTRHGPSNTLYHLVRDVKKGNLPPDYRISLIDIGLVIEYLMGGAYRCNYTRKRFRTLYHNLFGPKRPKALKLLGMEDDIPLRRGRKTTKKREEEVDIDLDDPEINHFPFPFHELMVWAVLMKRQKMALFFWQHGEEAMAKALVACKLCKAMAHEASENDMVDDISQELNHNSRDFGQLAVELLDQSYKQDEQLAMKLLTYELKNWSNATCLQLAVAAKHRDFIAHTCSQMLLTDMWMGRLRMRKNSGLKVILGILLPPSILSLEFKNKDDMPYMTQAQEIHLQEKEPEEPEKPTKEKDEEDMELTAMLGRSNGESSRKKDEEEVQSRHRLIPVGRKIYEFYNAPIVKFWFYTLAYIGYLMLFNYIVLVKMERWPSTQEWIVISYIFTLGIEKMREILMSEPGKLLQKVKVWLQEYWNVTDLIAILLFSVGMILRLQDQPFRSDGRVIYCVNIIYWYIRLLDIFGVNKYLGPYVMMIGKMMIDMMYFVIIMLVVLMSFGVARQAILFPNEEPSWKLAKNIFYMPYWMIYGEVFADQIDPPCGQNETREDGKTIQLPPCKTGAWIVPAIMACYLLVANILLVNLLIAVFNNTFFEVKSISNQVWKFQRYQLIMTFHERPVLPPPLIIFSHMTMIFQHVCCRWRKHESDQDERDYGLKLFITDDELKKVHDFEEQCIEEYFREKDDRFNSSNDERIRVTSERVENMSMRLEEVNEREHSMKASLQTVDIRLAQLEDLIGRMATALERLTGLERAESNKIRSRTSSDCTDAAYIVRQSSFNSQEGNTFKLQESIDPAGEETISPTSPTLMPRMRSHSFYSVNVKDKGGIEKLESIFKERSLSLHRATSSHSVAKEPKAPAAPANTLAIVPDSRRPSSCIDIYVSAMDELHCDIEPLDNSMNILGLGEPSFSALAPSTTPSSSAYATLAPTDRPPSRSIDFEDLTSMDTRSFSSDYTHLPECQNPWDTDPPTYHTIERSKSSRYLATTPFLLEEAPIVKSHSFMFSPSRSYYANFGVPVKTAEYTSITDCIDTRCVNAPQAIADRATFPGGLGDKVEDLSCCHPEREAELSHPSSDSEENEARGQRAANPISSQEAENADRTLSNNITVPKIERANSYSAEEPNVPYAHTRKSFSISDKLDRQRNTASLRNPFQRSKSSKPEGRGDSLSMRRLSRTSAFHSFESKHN

IC50 [nM] | SMILES
< 1000 | Cc1ncsc1C(C)Oc1ccc2oc(C)c(C(=O)NC3(CO)CCOCC3)c2c1 (stereo not drawn) [cpd 623-En 1]

Same assay, conditions: PS (50 μM) stimulated, cpds. 667-751

IC50 [nM] | SMILES
< 1000 | Cc1ccc(COc2ccc3oc(C(F)F)c(C(=O)N[C@@H](CO)C(N)=O)c3c2)cn1 [compound 743, (S)-N-(1-Amino-3-hydroxy-1-oxopropan-2-yl)-2-(difluoromethyl)-5-((6-methylpyridin-3-yl)methoxy)benzofuran-3-carboxamide]
< 1000 | NC(=O)[C@H](CO)NC(=O)c1c(C(F)F)oc2ccc(OCc3ccccn3)cc12 [compound 744]
< 1000 | Cc1ncc(COc2ccc3oc(C(F)F)c(C(=O)N[C@@H](CO)C(N)=O)c3c2)o1 [compound 746, (S)-N-(1-amino-3-hydroxy-1-oxopropan-2-yl)-2-(difluoromethyl)-5-((2-methyloxazol-5-yl)methoxy)benzofuran-3-carboxamide]
< 1000 | Cc1ncc(COc2ccc3oc(C4CC4)c(C(=O)N[C@@H](CO)C(N)=O)c3c2)o1 [compound 751, (S)-N-(1-amino-3-hydroxy-1-oxopropan-2-yl)-2-cyclopropyl-5-((2-methyloxazol-5-yl)methoxy) benzofuran-3-carboxamide]

The remaining lines, values behind:

SMILES | IC50 [nM]
Cc1oc2ccc(OCc3ccc(F)cn3)cc2c1C(=O)N[C@@H](CO)C(N)=O [compound 741, (S)-N-(1-Amino-3-hydroxy-1-oxopropan-2-yl)-5-((5-fluoropyridin-2-yl)methoxy)-2-methylbenzofuran-3-carboxamide] | < 1000
Cc1ncsc1COc1ccc2oc(C(F)F)c(C(=O)N[C@@H](CO)C(N)=O)c2c1 [compound 742, (S)-N-(1-amino-3-hydroxy-1-oxopropan-2-yl)-2-(difluoromethyl)-5-((4-methylthiazol-5-yl)methoxy)benzofuran-3-carboxamide] | < 1000
Cc1ncc(COc2ccc3oc(C(F)F)c(C(=O)N[C@@H](CO)C(N)=O)c3c2)s1 [compound 745, (S)-N-(1-amino-3-hydroxy-1-oxopropan-2-yl)-2-(difluoromethyl)-5-((2-methylthiazol-5-yl)methoxy)benzofuran-3-carboxamide] | < 1000
NC(=O)[C@H](CO)NC(=O)c1c(C2CC2)oc2ccc(OCc3ccccn3)cc12 [compound 747, (S)-N-(1-Amino-3-hydroxy-1-oxopropan-2-yl)-2-cyclopropyl-5-(pyridin-2-ylmethoxy)benzofuran-3-carboxamide] | < 1000
Cc1ncsc1COc1ccc2oc(C3CC3)c(C(=O)N[C@@H](CO)C(N)=O)c2c1 [compound 748, (S)-N-(1-Amino-3-hydroxy-1-oxopropan-2-yl)-2-cyclopropyl-5-((4-methylthiazol-5-yl)methoxy)benzofuran-3-carboxamide] | < 1000
Cc1ncc(COc2ccc3oc(C4CC4)c(C(=O)N[C@@H](CO)C(N)=O)c3c2)s1 [compound 749, (S)-N-(1-Amino-3-hydroxy-1-oxopropan-2-yl)-2-cyclopropyl-5-((2-methylthiazol-5-yl)methoxy)benzofuran-3-carboxamide] | < 1000
Cc1ccc(COc2ccc3oc(C4CC4)c(C(=O)N[C@@H](CO)C(N)=O)c3c2)cn1 [compound 750, (S)-N-(1-Amino-3-hydroxy-1-oxopropan-2-yl)-2-cyclopropyl-5-((6-methylpyridin-3-yl)methoxy)benzofuran-3-carboxamide] | < 1000
